Species: Rattus norvegicus
Experiment: DrugMatrix - Regimen: Daily Repeat
Format: toxicity, organism-based, Sprague-Dawley
Parameters: regimen Daily Repeat, gender Male, age 6-8 weeks
Settings: in vivo, po, route oral GAVAGE, vehicle 100 % WATER; for ABSOLUTE BASOPHIL / ABSOLUTE EOSINOPHIL / ABSOLUTE LYMPHOCYTE / ABSOLUTE MONOCYTE / ABSOLUTE SEGMENTED NEUTROPHIL / BASOPHIL / EOSINOPHIL / ERYTHROCYTE COUNT / HEMATOCRIT / HEMOGLOBIN / LEUKOCYTE COUNT / LYMPHOCYTE / MEAN CORPUSCULAR HEMOGLOBIN / MEAN CORPUSCULAR HEMOGLOBIN CONCENTRATION / MEAN CORPUSCULAR VOLUME / MONOCYTE / NEUTROPHIL / NUCLEATED RED BLOOD CELLS / PLATELET COUNT: tissue Blood; for ALANINE AMINOTRANSFERASE / ALKALINE PHOSPHATASE / ASPARTATE AMINOTRANSFERASE / BLOOD UREA NITROGEN / CARBON DIOXIDE / CHLORIDE / CHOLESTEROL / CREATINE PHOSPHOKINASE / CREATININE / GLUCOSE / LACTATE DEHYDROGENASE / LIPASE / PHOSPHORUS / POTASSIUM / SODIUM / TOTAL BILIRUBIN / TOTAL PROTEIN / URIC ACID: tissue Plasma
[1] = 0 mg/kg, 72 h, dose level Control, time 3 day
[2] = 0 mg/kg, 120 h, dose level Control, time 5 day
[3] = 46 mg/kg, 72 h, dose level Low, time 3 day
[4] = 46 mg/kg, 120 h, dose level Low, time 5 day

O=C1NC(=O)C(c2ccccc2)(c2ccccc2)N1 [PHENYTOIN]
ABSOLUTE BASOPHIL [1]: 0 CELLS/uL | ABSOLUTE EOSINOPHIL [1]: 123.17 CELLS/uL | ABSOLUTE LYMPHOCYTE [1]: 12677.83 CELLS/uL | ABSOLUTE MONOCYTE [1]: 66.17 CELLS/uL | ABSOLUTE SEGMENTED NEUTROPHIL [1]: 1149.5 CELLS/uL | BASOPHIL [1]: 0% | EOSINOPHIL [1]: 0.83% | ERYTHROCYTE COUNT [1]: 5.26 x10E6/uL | HEMATOCRIT [1]: 33.07% | HEMOGLOBIN [1]: 13.43 G/DL | LEUKOCYTE COUNT [1]: 14.02 x10E3/uL | LYMPHOCYTE [1]: 90.17% | MEAN CORPUSCULAR HEMOGLOBIN [1]: 25.62 pg | MEAN CORPUSCULAR HEMOGLOBIN CONCENTRATION [1]: 40.65 G/DL | MEAN CORPUSCULAR VOLUME [1]: 63 fL | MONOCYTE [1]: 0.5% | NEUTROPHIL [1]: 8.5% | NUCLEATED RED BLOOD CELLS [1]: 0.17 /100WBC | PLATELET COUNT [1]: 1142.83 x10E3/uL | ALANINE AMINOTRANSFERASE [1]: 45.17 u/L | ALKALINE PHOSPHATASE [1]: 340.17 u/L | ASPARTATE AMINOTRANSFERASE [1]: 77.33 u/L | BLOOD UREA NITROGEN [1]: 14.67 mg/dL | CARBON DIOXIDE [1]: 28.67 mmol/L | CHLORIDE [1]: 101.17 MEQ/L | CHOLESTEROL [1]: 77.67 mg/dL | CREATINE PHOSPHOKINASE [1]: 263.67 u/L | CREATININE [1]: 0.15 mg/dL | GLUCOSE [1]: 169.33 mg/dL | LACTATE DEHYDROGENASE [1]: 230 u/L | LIPASE [1]: 9.67 u/L | PHOSPHORUS [1]: 11.8 mg/dL | POTASSIUM [1]: 5.91 MEQ/L | SODIUM [1]: 142.88 MEQ/L | TOTAL BILIRUBIN [1]: 0.22 mg/dL | TOTAL PROTEIN [1]: 5.7 G/DL | URIC ACID [1]: 1.35 mg/dL | ABSOLUTE BASOPHIL [2]: 0 CELLS/uL | ABSOLUTE EOSINOPHIL [2]: 125 CELLS/uL | ABSOLUTE LYMPHOCYTE [2]: 13809 CELLS/uL | ABSOLUTE MONOCYTE [2]: 351 CELLS/uL | ABSOLUTE SEGMENTED NEUTROPHIL [2]: 1581.67 CELLS/uL | BASOPHIL [2]: 0% | EOSINOPHIL [2]: 0.67% | ERYTHROCYTE COUNT [2]: 5.53 x10E6/uL | HEMATOCRIT [2]: 34.83% | HEMOGLOBIN [2]: 13.9 G/DL | LEUKOCYTE COUNT [2]: 15.87 x10E3/uL | LYMPHOCYTE [2]: 87.5% | MEAN CORPUSCULAR HEMOGLOBIN [2]: 25.25 pg | MEAN CORPUSCULAR HEMOGLOBIN CONCENTRATION [2]: 40.08 G/DL | MEAN CORPUSCULAR VOLUME [2]: 63.05 fL | MONOCYTE [2]: 2.17% | NEUTROPHIL [2]: 9.67% | NUCLEATED RED BLOOD CELLS [2]: 0 /100WBC | PLATELET COUNT [2]: 1044 x10E3/uL | ALANINE AMINOTRANSFERASE [2]: 50.67 u/L | ALKALINE PHOSPHATASE [2]: 395 u/L | ASPARTATE AMINOTRANSFERASE [2]: 86 u/L | BLOOD UREA NITROGEN [2]: 15.33 mg/dL | CARBON DIOXIDE [2]: 29.33 mmol/L | CHLORIDE [2]: 101.5 MEQ/L | CHOLESTEROL [2]: 71.33 mg/dL | CREATINE PHOSPHOKINASE [2]: 323.17 u/L | CREATININE [2]: 0.18 mg/dL | GLUCOSE [2]: 145.67 mg/dL | LACTATE DEHYDROGENASE [2]: 389.5 u/L | LIPASE [2]: 9.83 u/L | PHOSPHORUS [2]: 11.35 mg/dL | POTASSIUM [2]: 6.39 MEQ/L | SODIUM [2]: 142.77 MEQ/L | TOTAL BILIRUBIN [2]: 0.18 mg/dL | TOTAL PROTEIN [2]: 6.1 G/DL | URIC ACID [2]: 1.52 mg/dL | ABSOLUTE BASOPHIL [3]: 0 CELLS/uL | ABSOLUTE EOSINOPHIL [3]: 0 CELLS/uL | ABSOLUTE LYMPHOCYTE [3]: 15884.67 CELLS/uL | ABSOLUTE MONOCYTE [3]: 0 CELLS/uL | ABSOLUTE SEGMENTED NEUTROPHIL [3]: 1248.67 CELLS/uL | BASOPHIL [3]: 0% | EOSINOPHIL [3]: 0% | ERYTHROCYTE COUNT [3]: 5.58 x10E6/uL | HEMATOCRIT [3]: 35.6% | HEMOGLOBIN [3]: 14.27 G/DL | LEUKOCYTE COUNT [3]: 17.13 x10E3/uL | LYMPHOCYTE [3]: 93% | MEAN CORPUSCULAR HEMOGLOBIN [3]: 25.63 pg | MEAN CORPUSCULAR HEMOGLOBIN CONCENTRATION [3]: 40.1 G/DL | MEAN CORPUSCULAR VOLUME [3]: 63.9 fL | MONOCYTE [3]: 0% | NEUTROPHIL [3]: 7% | NUCLEATED RED BLOOD CELLS [3]: 0 /100WBC | PLATELET COUNT [3]: 1336.33 x10E3/uL | ALANINE AMINOTRANSFERASE [3]: 48.67 u/L | ALKALINE PHOSPHATASE [3]: 344.67 u/L | ASPARTATE AMINOTRANSFERASE [3]: 69.33 u/L | BLOOD UREA NITROGEN [3]: 13.67 mg/dL | CARBON DIOXIDE [3]: 33.67 mmol/L | CHLORIDE [3]: 99.67 MEQ/L | CHOLESTEROL [3]: 68.67 mg/dL | CREATINE PHOSPHOKINASE [3]: 151.67 u/L | CREATININE [3]: 0.12 mg/dL | GLUCOSE [3]: 146 mg/dL | LACTATE DEHYDROGENASE [3]: 81.33 u/L | LIPASE [3]: 10 u/L | PHOSPHORUS [3]: 11.37 mg/dL | POTASSIUM [3]: 6.96 MEQ/L | SODIUM [3]: 142.8 MEQ/L | TOTAL BILIRUBIN [3]: 0.2 mg/dL | TOTAL PROTEIN [3]: 5.7 G/DL | URIC ACID [3]: 1.53 mg/dL | ABSOLUTE BASOPHIL [4]: 0 CELLS/uL | ABSOLUTE EOSINOPHIL [4]: 40.67 CELLS/uL | ABSOLUTE LYMPHOCYTE [4]: 11032 CELLS/uL | ABSOLUTE MONOCYTE [4]: 233.67 CELLS/uL | ABSOLUTE SEGMENTED NEUTROPHIL [4]: 793.67 CELLS/uL | BASOPHIL [4]: 0% | EOSINOPHIL [4]: 0.33% | ERYTHROCYTE COUNT [4]: 5.47 x10E6/uL | HEMATOCRIT [4]: 33.93% | HEMOGLOBIN [4]: 13.63 G/DL | LEUKOCYTE COUNT [4]: 12.1 x10E3/uL | LYMPHOCYTE [4]: 91.33% | MEAN CORPUSCULAR HEMOGLOBIN [4]: 24.93 pg | MEAN CORPUSCULAR HEMOGLOBIN CONCENTRATION [4]: 40.17 G/DL | MEAN CORPUSCULAR VOLUME [4]: 62 fL | MONOCYTE [4]: 2% | NEUTROPHIL [4]: 6.33% | NUCLEATED RED BLOOD CELLS [4]: 0 /100WBC | PLATELET COUNT [4]: 1416.33 x10E3/uL | ALANINE AMINOTRANSFERASE [4]: 54 u/L | ALKALINE PHOSPHATASE [4]: 319.67 u/L | ASPARTATE AMINOTRANSFERASE [4]: 264.33 u/L | BLOOD UREA NITROGEN [4]: 17 mg/dL | CARBON DIOXIDE [4]: 24.67 mmol/L | CHLORIDE [4]: 104.33 MEQ/L | CHOLESTEROL [4]: 61.67 mg/dL | CREATINE PHOSPHOKINASE [4]: 2442.67 u/L | CREATININE [4]: 0.27 mg/dL | GLUCOSE [4]: 152 mg/dL | LACTATE DEHYDROGENASE [4]: 827.67 u/L | LIPASE [4]: 10.67 u/L | PHOSPHORUS [4]: 13.43 mg/dL | POTASSIUM [4]: 7.35 MEQ/L | SODIUM [4]: 144.9 MEQ/L | TOTAL BILIRUBIN [4]: 0.2 mg/dL | TOTAL PROTEIN [4]: 6 G/DL | URIC ACID [4]: 3.3 mg/dL
